Test results published in PubChem BioAssay AID2060327 (Molecular Pharmacology Branch, DTP, NCI, 2025).

System: PC-3 multi-cell spheroids, viability
Assay: Anticancer human tumor PC-3 cell line growth inhibition [IpAb];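 further: spheroids exposed to compounds for 7 days before readout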;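 on viability, T/C: 100% = DMSO vehicle control wells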
Settings: for IC50: curve of first compound; for viability, T/C: stronger effect = lower value; active means viability on the fitted dose curve at most 10% of control; inactive means the rest
Summary of the method: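 Multi-cell spheroids of 60% tumour cells, 25% HUVEC and 15% MSC in ultra-low-attachment U-bottom wells, treated with agents combined with ipatasertib or abemaciclib. Half-log ranges top out near clinical Cmax, or 10 microM when Cmax is unknown.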

[1] = second compound 0.1 µM, first compound 0.0316 µM
[2] = second compound 0.1 µM, first compound 0.1 µM
[3] = second compound 0.1 µM, first compound 0.316 µM
[4] = second compound 0.1 µM, first compound 1 µM
[5] = second compound 0.1 µM, first compound 3.16 µM
[6] = second compound 0.1 µM, first compound 10 µM
[7] = second compound 0.316 µM, first compound 0.0316 µM
[8] = second compound 0.316 µM, first compound 0.1 µM
[9] = second compound 0.316 µM, first compound 0.316 µM
[10] = second compound 0.316 µM, first compound 1 µM
[11] = second compound 0.316 µM, first compound 3.16 µM
[12] = second compound 0.316 µM, first compound 10 µM
[13] = second compound 1 µM, first compound 0.0316 µM
[14] = second compound 1 µM, first compound 0.1 µM
[15] = second compound 1 µM, first compound 0.316 µM
[16] = second compound 1 µM, first compound 1 µM
[17] = second compound 1 µM, first compound 3.16 µM
[18] = second compound 1 µM, first compound 10 µM
[19] = second compound 0.1 µM, first compound 0.00949 µM
[20] = second compound 0.1 µM, first compound 0.03 µM
[21] = second compound 0.1 µM, first compound 0.0949 µM
[22] = second compound 0.1 µM, first compound 0.3 µM
[23] = second compound 0.1 µM, first compound 0.949 µM
[24] = second compound 0.1 µM, first compound 3 µM
[25] = second compound 0.316 µM, first compound 0.00949 µM
[26] = second compound 0.316 µM, first compound 0.03 µM
[27] = second compound 0.316 µM, first compound 0.0949 µM
[28] = second compound 0.316 µM, first compound 0.3 µM
[29] = second compound 0.316 µM, first compound 0.949 µM
[30] = second compound 0.316 µM, first compound 3 µM
[31] = second compound 1 µM, first compound 0.00949 µM
[32] = second compound 1 µM, first compound 0.03 µM
[33] = second compound 1 µM, first compound 0.0949 µM
[34] = second compound 1 µM, first compound 0.3 µM
[35] = second compound 1 µM, first compound 0.949 µM
[36] = second compound 1 µM, first compound 3 µM
[37] = second compound 3.16 µM, first compound 0.00949 µM
[38] = second compound 3.16 µM, first compound 0.03 µM
[39] = second compound 3.16 µM, first compound 0.0949 µM
[40] = second compound 3.16 µM, first compound 0.3 µM
[41] = second compound 3.16 µM, first compound 0.949 µM
[42] = second compound 3.16 µM, first compound 3 µM
[43] = second compound 10 µM, first compound 0.00949 µM
[44] = second compound 10 µM, first compound 0.03 µM
[45] = second compound 10 µM, first compound 0.0949 µM
[46] = second compound 10 µM, first compound 0.3 µM
[47] = second compound 10 µM, first compound 0.949 µM
[48] = second compound 10 µM, first compound 3 µM
[49] = second compound 0.01 µM, first compound 0.0316 µM
[50] = second compound 0.01 µM, first compound 0.1 µM
[51] = second compound 0.01 µM, first compound 0.316 µM
[52] = second compound 0.01 µM, first compound 1 µM
[53] = second compound 0.01 µM, first compound 3.16 µM
[54] = second compound 0.01 µM, first compound 10 µM
[55] = second compound 0.0316 µM, first compound 0.0316 µM
[56] = second compound 0.0316 µM, first compound 0.1 µM
[57] = second compound 0.0316 µM, first compound 0.316 µM
[58] = second compound 0.0316 µM, first compound 1 µM
[59] = second compound 0.0316 µM, first compound 3.16 µM
[60] = second compound 0.0316 µM, first compound 10 µM

CCCS(=O)(=O)Nc1ccc(F)c(C(=O)c2c[nH]c3ncc(-c4ccc(Cl)cc4)cc23)c1F + CC(C)NCC(C(=O)N1CCN(c2ncnc3c2C(C)CC3O)CC1)c1ccc(Cl)cc1
< 31.6 nM: IC50 (second compound 0.316 µM) | IC50 (second compound 1 µM) | IC50 (second compound 3.16 µM) | IC50 (second compound 10 µM)
inactive: viability, T/C [1] 81.9% | viability, T/C [2] 87.5% | viability, T/C [3] 95.2% | viability, T/C [4] 94.1% | viability, T/C [5] 83.8% | viability, T/C [6] 49.3% | viability, T/C [7] 45.2% | viability, T/C [8] 43.8% | viability, T/C [9] 46.4% | viability, T/C [10] 52.7% | viability, T/C [11] 50.3% | viability, T/C [12] 27% | viability, T/C [13] 25% | viability, T/C [14] 22.6% | viability, T/C [15] 27% | viability, T/C [16] 28.4% | viability, T/C [17] 26.3% | viability, T/C [18] 15.1% | viability, T/C (second compound 3.16 µM, first compound 0.0316 µM) 13.6% | viability, T/C (second compound 3.16 µM, first compound 0.1 µM) 15.6% | viability, T/C (second compound 3.16 µM, first compound 0.316 µM) 16.8% | viability, T/C (second compound 3.16 µM, first compound 1 µM) 17.2% | viability, T/C (second compound 3.16 µM, first compound 3.16 µM) 14.5% | viability, T/C (second compound 3.16 µM, first compound 10 µM) 10.5% | viability, T/C (second compound 10 µM, first compound 0.0316 µM) 12.8% | viability, T/C (second compound 10 µM, first compound 0.1 µM) 13% | viability, T/C (second compound 10 µM, first compound 0.316 µM) 15% | viability, T/C (second compound 10 µM, first compound 1 µM) 14.9% | viability, T/C (second compound 10 µM, first compound 3.16 µM) 12.6% | viability, T/C (second compound 10 µM, first compound 10 µM) 7.8%
9890 nM: IC50 (second compound 0.1 µM)

CC(C)(C)c1cnc(CSc2cnc(NC(=O)C3CCNCC3)s2)o1 + CC(C)NCC(C(=O)N1CCN(c2ncnc3c2C(C)CC3O)CC1)c1ccc(Cl)cc1
active: viability, T/C [22] 4.14% | viability, T/C [23] 6.3% | viability, T/C [24] 6.84% | viability, T/C [28] 3.47% | viability, T/C [29] 5.07% | viability, T/C [30] 5.91% | viability, T/C [35] 4.05% | viability, T/C [36] 5.41% | viability, T/C [40] 3% | viability, T/C [41] 3.25% | viability, T/C [42] 4.47% | viability, T/C [45] 10.1% | viability, T/C [46] 2.76% | viability, T/C [47] 3.15% | viability, T/C [48] 3.94%
inactive: viability, T/C [19] 80.2% | viability, T/C [20] 98.4% | viability, T/C [21] 95.3% | viability, T/C [25] 49.9% | viability, T/C [26] 46.9% | viability, T/C [27] 64% | viability, T/C [31] 31.3% | viability, T/C [32] 34.9% | viability, T/C [33] 36.7% | viability, T/C [34] 3.39% | viability, T/C [37] 17.2% | viability, T/C [38] 19.3% | viability, T/C [39] 19.5% | viability, T/C [43] 14.8% | viability, T/C [44] 16.8%
< 9.49 nM: IC50 (second compound 1 µM) | IC50 (second compound 3.16 µM) | IC50 (second compound 10 µM)
103 nM: IC50 (second compound 0.316 µM)
165 nM: IC50 (second compound 0.1 µM)

Cc1nc(NC(=O)N2CCCC2C(N)=O)sc1-c1ccnc(C(C)(C)C(F)(F)F)c1 (stereo not given) + CCN1CCN(Cc2ccc(Nc3ncc(F)c(-c4cc(F)c5nc(C)n(C(C)C)c5c4)n3)nc2)CC1
inactive: viability, T/C [49] 68.2% | viability, T/C [50] 48.2% | viability, T/C [51] 50.6% | viability, T/C [52] 51.2% | viability, T/C [53] 43.4% | viability, T/C [54] 13.6% | viability, T/C [55] 54.5% | viability, T/C [56] 52.7% | viability, T/C [57] 58.6% | viability, T/C [58] 53.9% | viability, T/C [59] 39.1% | viability, T/C [60] 11.1% | viability, T/C [1] 49% | viability, T/C [2] 55.5% | viability, T/C [3] 51.2% | viability, T/C [4] 47.5% | viability, T/C [5] 32.9% | viability, T/C [6] 11.5% | viability, T/C [7] 59.4% | viability, T/C [8] 63.2% | viability, T/C [9] 55.6% | viability, T/C [10] 41.5% | viability, T/C [11] 27.8% | viability, T/C [12] 11.9% | viability, T/C [13] 62% | viability, T/C [14] 53.6% | viability, T/C [15] 45.9% | viability, T/C [16] 29.6% | viability, T/C [17] 20.6% | viability, T/C [18] 14.4%
523 nM: IC50 (second compound 0.316 µM)
489 nM: IC50 (second compound 0.1 µM)
172 nM: IC50 (second compound 1 µM)
1120 nM: IC50 (second compound 0.01 µM)
1380 nM: IC50 (second compound 0.0316 µM)

Cn1cnc2c(F)c(Nc3ccc(Br)cc3Cl)c(C(=O)NOCCO)cc21 + CC(C)NCC(C(=O)N1CCN(c2ncnc3c2C(C)CC3O)CC1)c1ccc(Cl)cc1
inactive: viability, T/C [19] 83.2% | viability, T/C [20] 73.6% | viability, T/C [21] 88.3% | viability, T/C [22] 78.9% | viability, T/C [23] 70% | viability, T/C [24] 55.6% | viability, T/C [25] 46.5% | viability, T/C [26] 45% | viability, T/C [27] 47.3% | viability, T/C [28] 44.5% | viability, T/C [29] 45% | viability, T/C [30] 37.1% | viability, T/C [31] 25.6% | viability, T/C [32] 27.1% | viability, T/C [33] 24.1% | viability, T/C [34] 20.8% | viability, T/C [35] 19.9% | viability, T/C [36] 17.6% | viability, T/C [43] 12.9% | viability, T/C [44] 12.2% | viability, T/C [45] 11.5% | viability, T/C [46] 12.1% | viability, T/C [47] 11.4% | viability, T/C [48] 10.7%
< 9.49 nM: IC50 (second compound 0.316 µM) | IC50 (second compound 1 µM) | IC50 (second compound 3.16 µM) | IC50 (second compound 10 µM)
active: viability, T/C [37] 8.45% | viability, T/C [38] 6.53% | viability, T/C [39] 7.72% | viability, T/C [40] 7.02% | viability, T/C [41] 8% | viability, T/C [42] 6.09%
> 3000 nM: IC50 (second compound 0.1 µM)

CC1(C)CCC(CN2CCN(c3ccc(C(=O)NS(=O)(=O)c4ccc(NCC5CCOCC5)c([N+](=O)[O-])c4)c(Oc4cnc5[nH]ccc5c4)c3)CC2)=C(c2ccc(Cl)cc2)C1 + CCN1CCN(Cc2ccc(Nc3ncc(F)c(-c4cc(F)c5nc(C)n(C(C)C)c5c4)n3)nc2)CC1
4190 nM: IC50 (second compound 0.1 µM)
1280 nM: IC50 (second compound 1 µM)
active: viability, T/C [54] 4% | viability, T/C [60] 4.41% | viability, T/C [6] 3.35% | viability, T/C [12] 3.28% | viability, T/C [18] 4.98%
4540 nM: IC50 (second compound 0.0316 µM)
5520 nM: IC50 (second compound 0.01 µM)
3980 nM: IC50 (second compound 0.316 µM)
inactive: viability, T/C [49] 102% | viability, T/C [50] 101% | viability, T/C [51] 107% | viability, T/C [52] 98.1% | viability, T/C [53] 93.2% | viability, T/C [55] 73.1% | viability, T/C [56] 71.5% | viability, T/C [57] 73.6% | viability, T/C [58] 64.8% | viability, T/C [59] 71.4% | viability, T/C [1] 65.9% | viability, T/C [2] 66% | viability, T/C [3] 58.7% | viability, T/C [4] 64.2% | viability, T/C [5] 70.1% | viability, T/C [7] 62.9% | viability, T/C [8] 70.4% | viability, T/C [9] 66.3% | viability, T/C [10] 61.7% | viability, T/C [11] 61.9% | viability, T/C [13] 60.8% | viability, T/C [14] 60.2% | viability, T/C [15] 54.3% | viability, T/C [16] 51.8% | viability, T/C [17] 41.5%
